Experimental data from publication PMC6152318 (Molecules : A Journal of Synthetic Chemistry and Natural …, 2017).

Experiments:
[1] = Flavonoid fluorescence in buffer solution without HSA
[2] = target: Human serum albumin (HSA) IIA binding site (Homo sapiens, UniProt P02768); assay: Flavonoid fluorescence (excitation 450 nm) on HSA pre-saturated with warfarin (simultaneous binding / displacement)
Protocol: HSA was freshly dissolved in Dulbecco’s phosphate-buffered saline pH 7.4 (137 mM sodium chloride, 2.7 mM potassium chloride, 8.1 mM disodium hydrogen phosphate, 1.47 mM potassium dihydrogen phosphate) immediately before measurements. […]. In all experiments, the final co-solvent concentration was held below 5%. This was done to prevent conformational changes of HSA due to changes in dielectric constant of the solvent.
Steady-state fluorescence was recorded using a thermostated Safas Xenius fluorometer (Safas Monaco, Monaco) with an integrated stirrer. All studies were performed at 25 ± 1 °C using 10 nm excitation and emission slit widths. […] Higher concentrations of HSA and ligands were not used due to poor solubility of ligands and high influence of ligand absorption. Measurements were performed in duplicate.

[3] = target: T1, Human serum albumin (HSA) (Homo sapiens, UniProt P02768); assay: Binding constants by quenching of HSA tryptophan fluorescence
T1 construct: Fatty acid free HSA and warfarin sodium were purchased from Sigma-Aldrich; purchased Sigma-Aldrich (St. Louis, MO, USA)
T1 sequence (P02768 25-609): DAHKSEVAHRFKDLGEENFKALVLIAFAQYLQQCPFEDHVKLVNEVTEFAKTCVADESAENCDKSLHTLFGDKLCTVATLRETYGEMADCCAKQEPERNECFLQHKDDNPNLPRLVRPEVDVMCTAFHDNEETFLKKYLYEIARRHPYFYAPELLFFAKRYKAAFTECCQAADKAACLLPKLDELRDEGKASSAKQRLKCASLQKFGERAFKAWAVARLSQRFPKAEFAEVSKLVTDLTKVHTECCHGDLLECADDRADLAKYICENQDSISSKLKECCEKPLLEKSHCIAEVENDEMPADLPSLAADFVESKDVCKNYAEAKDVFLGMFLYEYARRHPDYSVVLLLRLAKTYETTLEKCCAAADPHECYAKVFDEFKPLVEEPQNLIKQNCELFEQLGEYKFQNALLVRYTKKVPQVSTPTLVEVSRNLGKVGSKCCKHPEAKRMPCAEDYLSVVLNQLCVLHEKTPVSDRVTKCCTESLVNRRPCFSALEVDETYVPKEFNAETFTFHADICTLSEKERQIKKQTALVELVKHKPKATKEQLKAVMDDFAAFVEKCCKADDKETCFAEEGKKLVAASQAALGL
Protocol: In all experiments, the final co-solvent concentration was held below 5%. This was done to prevent conformational changes of HSA due to changes in dielectric constant of the solvent.
Steady-state fluorescence was recorded using a thermostated Safas Xenius fluorometer (Safas Monaco, Monaco) with an integrated stirrer. All studies were performed at 25 ± 1 °C using 10 nm excitation and emission slit widths. […] Measurements were performed in duplicate.
A stock solution of a single ligand was gradually added via syringe to a 2 mL of a 6 μM HSA solution placed in a quartz cell. Measurements were conducted at the excitation wavelength of 295 nm and emission was recorded in the 310–400 nm range enabling calculations of corresponding binding constants. […] Binding constants were determined according to Dufour and Dangles. A Scatchard analysis was performed assuming n identical binding sites on HSA. Values for binding constant (K), molar fluorescence intensity of the complex (f), and the stoichiometric coefficient (n) were estimated by fitting the F vs. Lt curves against Equations (1) and (2) using a least-square regression program Scientist (MicroMath, Salt Lake City, UT, USA), where F is fluorescence intensity, [L] the free ligand concentration, [Lt] the total ligand concentration, and c the total albumin concentration. […] In all cases, the inner filter effect was taken into account by using absorption of free ligands at excitation and emission wavelengths (εex and εem, respectively) (Equation (3)), where Fcorr is the fluorescence corrected for the inner filter effect, F0 is the measured fluorescence, ε is the sum of εex and εem, l = 0.65 is the optical path and c is the flavonoid concentration. (1) Fcorr=fcnK[L]/1+K[L] (2) [Lt]=[L](1+ncK/1+K[L]) (3) F0=Fcorr×10^−εlc

[4] = HSA 0-92% saturated with warfarin

Sequence of Human serum albumin (HSA) IIA binding site (P02768 25-609): as above

Question: Which Absolute fluorescence intensity ([1]; flavonoid 2,00 uM) does the source give for `O=c1cc(-c2ccc(O)c(O)c2)oc2cc(O)cc(O)c12` [Luteolin] here?
Answer: 0,5984

Question: And the Absolute fluorescence intensity ([1]; flavonoid 4,00 uM)?
Answer: 0,7341

Question: And the Absolute fluorescence intensity ([1]; flavonoid 7,99 uM)?
Answer: 0,8094

Question: And the Absolute fluorescence intensity ([1]; flavonoid 15,97 uM)?
Answer: 0,8481

Question: And the Absolute fluorescence intensity ([1]; flavonoid 31,87 uM)?
Answer: 1,0538

Question: And the Absolute fluorescence intensity ([1]; flavonoid 47,71 uM)?
Answer: 1,3400

Question: And the Absolute fluorescence intensity ([1]; flavonoid 63,49 uM)?
Answer: 1,5045

Question: What about the Absolute fluorescence intensity ([1]; flavonoid 79,21 uM) of the same compound?
Answer: 1,7483

Question: And the Absolute fluorescence intensity ([1]; flavonoid 118,23 uM)?
Answer: 2,2774

Question: And the Absolute fluorescence intensity ([1]; flavonoid 156,86 uM)?
Answer: 2,8851

Question: What about the “Effect of warfarin on flavonoid Fmax (maximum fluorescence)” value [2, 4] of the same compound?
Answer: no noticeable change

Question: What about the “Effect of warfarin on flavonoid cmax (concentration needed to achieve Fmax)” value [2, 4] of the same compound?
Answer: no noticeable change

Question: And the Absolute fluorescence intensity ([2]; flavonoid 2,00 uM, 0% occupied HSA)?
Answer: 3,5310

Question: What about the Absolute fluorescence intensity ([2]; flavonoid 2,00 uM, 22% occupied HSA) of the same compound?
Answer: 3,0516

Question: What about the Absolute fluorescence intensity ([2]; flavonoid 2,00 uM, 38% occupied HSA) of the same compound?
Answer: 3,2663

Question: What about the Absolute fluorescence intensity ([2]; flavonoid 2,00 uM, 63% occupied HSA) of the same compound?
Answer: 2,9688

Question: What about the Absolute fluorescence intensity ([2]; flavonoid 2,00 uM, 92% occupied HSA) of the same compound?
Answer: 3,0838

Question: And the Absolute fluorescence intensity ([2]; flavonoid 4,00 uM, 0% occupied HSA)?
Answer: 5,6541

Question: What about the Absolute fluorescence intensity ([2]; flavonoid 4,00 uM, 22% occupied HSA) of the same compound?
Answer: 5,0287

Question: What about the Absolute fluorescence intensity ([2]; flavonoid 4,00 uM, 38% occupied HSA) of the same compound?
Answer: 5,0961

Question: And the Absolute fluorescence intensity ([2]; flavonoid 4,00 uM, 63% occupied HSA)?
Answer: 4,7527

Question: And the Absolute fluorescence intensity ([2]; flavonoid 4,00 uM, 92% occupied HSA)?
Answer: 4,7445

Question: What about the Absolute fluorescence intensity ([2]; flavonoid 6,00 uM, 0% occupied HSA) of the same compound?
Answer: 7,6599

Question: And the Absolute fluorescence intensity ([2]; flavonoid 6,00 uM, 22% occupied HSA)?
Answer: 6,8528

Question: And the Absolute fluorescence intensity ([2]; flavonoid 6,00 uM, 38% occupied HSA)?
Answer: 6,8106

Question: And the Absolute fluorescence intensity ([2]; flavonoid 6,00 uM, 63% occupied HSA)?
Answer: 6,3873

Question: What about the Absolute fluorescence intensity ([2]; flavonoid 6,00 uM, 92% occupied HSA) of the same compound?
Answer: 6,5159

Question: What about the Absolute fluorescence intensity ([2]; flavonoid 7,99 uM, 0% occupied HSA) of the same compound?
Answer: 9,4059

Question: What about the Absolute fluorescence intensity ([2]; flavonoid 7,99 uM, 22% occupied HSA) of the same compound?
Answer: 8,8217

Question: And the Absolute fluorescence intensity ([2]; flavonoid 7,99 uM, 38% occupied HSA)?
Answer: 8,5002

Question: What about the Absolute fluorescence intensity ([2]; flavonoid 7,99 uM, 63% occupied HSA) of the same compound?
Answer: 7,8443

Question: And the Absolute fluorescence intensity ([2]; flavonoid 7,99 uM, 92% occupied HSA)?
Answer: 8,1746

Question: What about the Absolute fluorescence intensity ([2]; flavonoid 11,98 uM, 0% occupied HSA) of the same compound?
Answer: 11,5397

Question: And the Absolute fluorescence intensity ([2]; flavonoid 11,98 uM, 22% occupied HSA)?
Answer: 11,3861

Question: And the Absolute fluorescence intensity ([2]; flavonoid 11,98 uM, 38% occupied HSA)?
Answer: 11,3711

Question: What about the Absolute fluorescence intensity ([2]; flavonoid 11,98 uM, 63% occupied HSA) of the same compound?
Answer: 10,9648

Question: What about the Absolute fluorescence intensity ([2]; flavonoid 11,98 uM, 92% occupied HSA) of the same compound?
Answer: 10,4774

Question: What about the Absolute fluorescence intensity ([2]; flavonoid 15,97 uM, 0% occupied HSA) of the same compound?
Answer: 14,0865

Question: And the Absolute fluorescence intensity ([2]; flavonoid 15,97 uM, 22% occupied HSA)?
Answer: 14,1260

Question: And the Absolute fluorescence intensity ([2]; flavonoid 15,97 uM, 38% occupied HSA)?
Answer: 13,9507

Question: What about the Absolute fluorescence intensity ([2]; flavonoid 15,97 uM, 63% occupied HSA) of the same compound?
Answer: 13,0693

Question: What about the Absolute fluorescence intensity ([2]; flavonoid 15,97 uM, 92% occupied HSA) of the same compound?
Answer: 12,9194

Question: And the Absolute fluorescence intensity ([2]; flavonoid 23,93 uM, 0% occupied HSA)?
Answer: 17,9442

Question: What about the Absolute fluorescence intensity ([2]; flavonoid 23,93 uM, 22% occupied HSA) of the same compound?
Answer: 17,8085

Question: What about the Absolute fluorescence intensity ([2]; flavonoid 23,93 uM, 38% occupied HSA) of the same compound?
Answer: 17,8530

Question: What about the Absolute fluorescence intensity ([2]; flavonoid 23,93 uM, 63% occupied HSA) of the same compound?
Answer: 17,0150

Question: And the Absolute fluorescence intensity ([2]; flavonoid 23,93 uM, 92% occupied HSA)?
Answer: 16,3518

Question: What about the Absolute fluorescence intensity ([2]; flavonoid 31,87 uM, 0% occupied HSA) of the same compound?
Answer: 20,8667

Question: And the Absolute fluorescence intensity ([2]; flavonoid 31,87 uM, 22% occupied HSA)?
Answer: 20,4964

Question: What about the Absolute fluorescence intensity ([2]; flavonoid 31,87 uM, 38% occupied HSA) of the same compound?
Answer: 20,5131

Question: And the Absolute fluorescence intensity ([2]; flavonoid 31,87 uM, 63% occupied HSA)?
Answer: 19,6701

Question: And the Absolute fluorescence intensity ([2]; flavonoid 31,87 uM, 92% occupied HSA)?
Answer: 19,1278

Question: And the Absolute fluorescence intensity ([2]; flavonoid 39,80 uM, 0% occupied HSA)?
Answer: 22,9301

Question: And the Absolute fluorescence intensity ([2]; flavonoid 39,80 uM, 22% occupied HSA)?
Answer: 22,5924

Question: What about the Absolute fluorescence intensity ([2]; flavonoid 39,80 uM, 38% occupied HSA) of the same compound?
Answer: 22,2082

Question: What about the Absolute fluorescence intensity ([2]; flavonoid 39,80 uM, 63% occupied HSA) of the same compound?
Answer: 21,6524

Question: And the Absolute fluorescence intensity ([2]; flavonoid 39,80 uM, 92% occupied HSA)?
Answer: 20,8642

Question: And the Absolute fluorescence intensity ([2]; flavonoid 47,71 uM, 0% occupied HSA)?
Answer: 24,5206

Question: What about the Absolute fluorescence intensity ([2]; flavonoid 47,71 uM, 22% occupied HSA) of the same compound?
Answer: 23,8063

Question: What about the Absolute fluorescence intensity ([2]; flavonoid 47,71 uM, 38% occupied HSA) of the same compound?
Answer: 23,5737

Question: What about the Absolute fluorescence intensity ([2]; flavonoid 47,71 uM, 63% occupied HSA) of the same compound?
Answer: 23,1678

Question: And the Absolute fluorescence intensity ([2]; flavonoid 47,71 uM, 92% occupied HSA)?
Answer: 22,5713

Question: What about the Absolute fluorescence intensity ([2]; flavonoid 63,49 uM, 0% occupied HSA) of the same compound?
Answer: 26,4505

Question: What about the Absolute fluorescence intensity ([2]; flavonoid 63,49 uM, 22% occupied HSA) of the same compound?
Answer: 25,9034

Question: What about the Absolute fluorescence intensity ([2]; flavonoid 63,49 uM, 38% occupied HSA) of the same compound?
Answer: 25,4318

Question: And the Absolute fluorescence intensity ([2]; flavonoid 63,49 uM, 63% occupied HSA)?
Answer: 24,8572

Question: What about the Absolute fluorescence intensity ([2]; flavonoid 63,49 uM, 92% occupied HSA) of the same compound?
Answer: 24,6423

Question: What about the Absolute fluorescence intensity ([2]; flavonoid 79,21 uM, 0% occupied HSA) of the same compound?
Answer: 26,9488

Question: What about the Absolute fluorescence intensity ([2]; flavonoid 79,21 uM, 22% occupied HSA) of the same compound?
Answer: 26,5002

Question: What about the Absolute fluorescence intensity ([2]; flavonoid 79,21 uM, 38% occupied HSA) of the same compound?
Answer: 26,5136

Question: What about the Absolute fluorescence intensity ([2]; flavonoid 79,21 uM, 63% occupied HSA) of the same compound?
Answer: 25,8191

Question: What about the Absolute fluorescence intensity ([2]; flavonoid 79,21 uM, 92% occupied HSA) of the same compound?
Answer: 25,3909

Question: And the Absolute fluorescence intensity ([2]; flavonoid 98,77 uM, 0% occupied HSA)?
Answer: 27,2939

Question: What about the Absolute fluorescence intensity ([2]; flavonoid 98,77 uM, 22% occupied HSA) of the same compound?
Answer: 27,2804

Question: What about the Absolute fluorescence intensity ([2]; flavonoid 98,77 uM, 38% occupied HSA) of the same compound?
Answer: 26,9116

Question: And the Absolute fluorescence intensity ([2]; flavonoid 98,77 uM, 63% occupied HSA)?
Answer: 26,1311

Question: And the Absolute fluorescence intensity ([2]; flavonoid 98,77 uM, 92% occupied HSA)?
Answer: 26,2198

Question: And the Absolute fluorescence intensity ([2]; flavonoid 118,23 uM, 0% occupied HSA)?
Answer: 27,1078

Question: What about the Absolute fluorescence intensity ([2]; flavonoid 118,23 uM, 22% occupied HSA) of the same compound?
Answer: 27,1338

Question: What about the Absolute fluorescence intensity ([2]; flavonoid 118,23 uM, 38% occupied HSA) of the same compound?
Answer: 26,9198

Question: And the Absolute fluorescence intensity ([2]; flavonoid 118,23 uM, 63% occupied HSA)?
Answer: 26,3501

Question: And the Absolute fluorescence intensity ([2]; flavonoid 118,23 uM, 92% occupied HSA)?
Answer: 26,3929

Question: What about the Absolute fluorescence intensity ([2]; flavonoid 137,59 uM, 0% occupied HSA) of the same compound?
Answer: 26,3217

Question: What about the Absolute fluorescence intensity ([2]; flavonoid 137,59 uM, 22% occupied HSA) of the same compound?
Answer: 26,7053

Question: What about the Absolute fluorescence intensity ([2]; flavonoid 137,59 uM, 38% occupied HSA) of the same compound?
Answer: 26,6416

Question: And the Absolute fluorescence intensity ([2]; flavonoid 137,59 uM, 63% occupied HSA)?
Answer: 26,1054

Question: What about the Absolute fluorescence intensity ([2]; flavonoid 137,59 uM, 92% occupied HSA) of the same compound?
Answer: 26,3918

Question: What about the Absolute fluorescence intensity ([2]; flavonoid 156,86 uM, 0% occupied HSA) of the same compound?
Answer: 25,8093

Question: What about the Absolute fluorescence intensity ([2]; flavonoid 156,86 uM, 22% occupied HSA) of the same compound?
Answer: 26,0626

Question: And the Absolute fluorescence intensity ([2]; flavonoid 156,86 uM, 38% occupied HSA)?
Answer: 26,1509

Question: And the Absolute fluorescence intensity ([2]; flavonoid 156,86 uM, 63% occupied HSA)?
Answer: 25,5239

Question: And the Absolute fluorescence intensity ([2]; flavonoid 156,86 uM, 92% occupied HSA)?
Answer: 25,7773

Question: What about the Kd [3] of the same compound?
Answer: 8.2 µM
